Measurements reported in ChEMBL document CHEMBL1201862, “PubChem BioAssay data set” (2004).
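48-hour exposure; five concentrations; linearly interpolated endpoints. Abbreviation: GI50, concentration required for 50% inhibition of growth.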 Calls of active or inactive are those of the source. No stated cut-off is given here; in the data, active = GI50 up to about 1.1 µM and inactive = higher.

Key:
Test in all cases: NCI anticancer screen, dose series, 48 h
A498 = tested on: A498
ACHN = tested on: ACHN
CAKI-1 = tested on: CAKI-1
CCRF-CEM = tested on: CCRF-CEM
EKVX = tested on: EKVX
HCC 2998 = tested on: HCC 2998
HOP-92 = tested on: HOP-92
Hs-578T = tested on: Hs-578T
MCF7 = tested on: MCF7
MDA-MB-231 = tested on: MDA-MB-231
MDA-MB-435 = tested on: MDA-MB-435
MDA-N = tested on: MDA-N
PC-3 = tested on: PC-3
RXF 393 = tested on: RXF 393
SK-MEL-5 = tested on: SK-MEL-5
SK-OV-3 = tested on: SK-OV-3
SR = tested on: SR
T47D = tested on: T47D
UACC-257 = tested on: UACC-257
UACC-62 = tested on: UACC-62

Measured: GI50

c1ccc2c(c1)Nc1nc3nonc3nc1N2
inactive: A498 > 100 µM | ACHN > 100 µM | CAKI-1 > 100 µM | CCRF-CEM > 100 µM | EKVX > 100 µM | HCC 2998 > 100 µM | HOP-92 > 100 µM | Hs-578T > 100 µM | MCF7 > 100 µM | MDA-MB-231 > 100 µM | MDA-MB-435 > 100 µM | MDA-N > 100 µM | PC-3 > 100 µM | RXF 393 > 100 µM | SK-MEL-5 > 100 µM | SK-OV-3 > 100 µM | SR > 100 µM | T47D > 100 µM | UACC-257 > 100 µM | UACC-62 > 100 µM

CN(C)c1ccc(C(c2ccc(Cl)cc2)c2ccc(N(C)C)cc2)cc1
inactive: A498 > 100 µM | ACHN > 100 µM | CAKI-1 > 100 µM | CCRF-CEM 72.9 µM | EKVX 62.5 µM | HCC 2998 69 µM | HOP-92 > 100 µM | Hs-578T 90.6 µM | MCF7 49.1 µM | MDA-MB-231 > 100 µM | MDA-MB-435 > 100 µM | MDA-N 82.8 µM | PC-3 > 100 µM | RXF 393 28.8 µM | SK-MEL-5 92.9 µM | SK-OV-3 > 100 µM | SR 57.5 µM | T47D 64.7 µM | UACC-257 60.1 µM | UACC-62 > 100 µM
